Assay results taken from US8778966B2, “Quinolinone derivatives as PARP and tank inhibitors” (Janssen Pharmaceutica, NV, priority 2007, dated 2014).

How the values were obtained:
PC-3 cells = experiment: Antiproliferative activity, Alamar Blue assay, PC-3 cells; assay type: cell-based, human; details: for IC50: Homo sapiens, PC-3, PC3 cells, read-out: PC3 antiproliferative activity pIC50 (converted)
Method in brief: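 Resazurin-based fluorescence (540 nm ex/590 nm em) measured after 4-day compound treatment plus 24 hrs dye incubation at 37° C. Cells plated at 4.5×10^3 cells/ml, adhered 24 hr first. pIC50 from probit-derived IC50 on % viable cells versus untreated, triplicate wells.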

PC3 cells = experiment: EB1 Comet (microtubule disruption) assay; assay type: cell-based, human; details: 1 hour treatment; for minimal effective concentration: Homo sapiens, PC-3, 1 h, read-out: EB1 pLAC (converted)
Method in brief: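 Readout is loss of Eb1 plus-end foci, scored by immunofluorescence microscopy, in PC3 cells after 1 h compound treatment at 37 °C with 0.6% final DMSO. LAC is defined as the lowest concentration leaving at least 50% of cells without Eb1 foci.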

SMILES	IC50 (PC-3 cells)	minimal effective concentration (PC3 cells)	PC3 antiproliferative activity pIC50 (PC-3 cells; PC3 cells)	EB1 pLAC (PC3 cells)
Cc1cc2ccc(C(C)(C#N)Cc3cccc(Oc4ccccn4)c3)cc2[nH]c1=O (centres unmarked) [Compound 304]	398 nM	0.1 µM	–	–
CCOc1cc(N(C)C)nc(CC(C)(C#N)c2ccc3cc(CC)c(=O)[nH]c3c2)n1 (centres unmarked) [Compound 312]	1000 nM	1 µM	–	–
CCOc1cc(C#N)nc(CC(C)(C#N)c2ccc3cc(CC)c(=O)[nH]c3c2)n1 (centres unmarked) [Compound 315]	1260 nM	1 µM	–	–
CCc1cc2ccc(C(C#N)(CC)Cc3nc(C#N)cc(OC)n3)cc2[nH]c1=O (centres unmarked) [Compound 316]	1260 nM	3.16 µM	–	–
CCc1cc2ccc(C(C#N)(CC)Cc3nc(OC)cc(OC)n3)cc2[nH]c1=O (centres unmarked) [Compound 321]	398 nM	0.316 µM	–	–
CCc1cc2ccc(C(C)(C#N)Cc3ccnc(C#N)c3)cc2[nH]c1=O (centres unmarked) [Compound 324]	10000 nM	1 µM	–	–
CCc1cc2ccc(C(C)(C#N)Cc3cc(C)nc(Cl)c3)cc2[nH]c1=O (centres unmarked) [Compound 326]	1000 nM	3.16 µM	–	–
CCc1cc2ccc(C(C)(C#N)Cc3cccc(F)n3)cc2[nH]c1=O (centres unmarked) [Compound 331]	1580 nM	0.1 µM	–	–
CCc1cc2ccc([C@](C)(C#N)Cc3cc(F)cc(F)c3)cc2[nH]c1=O [Compound 333]	10000 nM	10 µM	–	–
CCc1cc2ccc(C(C)(C#N)Cc3ccc(C(F)(F)F)nc3C)cc2[nH]c1=O (centres unmarked) [Compound 340]	3980 nM	10 µM	–	–
CCc1cc2ccc(C(C)(C#N)Cc3ccnc(Cl)c3)cc2[nH]c1=O (centres unmarked) [Compound 341]	6310 nM	10 µM	–	–
CCc1cc2ccc(C(C#N)(CC)Cc3cccc(C#N)n3)cc2[nH]c1=O (centres unmarked) [Compound 342]	1260 nM	3.16 µM	–	–
CCc1cc2ccc(C(C)(C#N)CCOc3ccnc(SC)n3)cc2[nH]c1=O (centres unmarked) [Compound 348]	7940 nM	10 µM	–	–
CCc1cc2ccc(C(C)(C#N)CCOc3ncc(Br)cn3)cc2[nH]c1=O (centres unmarked) [Compound 349]	1580 nM	1 µM	–	–
CCc1cc2ccc(C(C)(C#N)Cc3nc(C)cc(OC)n3)cc2[nH]c1=O (centres unmarked) [Compound 371]	398 nM	0.316 µM	–	–
CCc1cc2ccc(C(C)(C#N)CN3CCc4ccccc4C3)cc2[nH]c1=O (centres unmarked) [Compound 376]	2510 nM	3.16 µM	–	–
CCc1cc2ccc([C@](C)(C#N)C[C@H]3Cc4ccccc4O3)cc2[nH]c1=O [Compound 397]	10000 nM	3.16 µM	–	–
CCc1cc2ccc(C(C)(C#N)CC3Oc4ccccc4O3)cc2[nH]c1=O (centres unmarked) [Compound 398]	7940 nM	3.16 µM	–	–
CCc1cc2ccc(C(C)(C#N)Cc3cc(F)cc(F)c3)cc2[nH]c1=O (centres unmarked) [Compound 402]	–	–	6.4	6.5
